The experiment is described as follows: Biochemical Assay: Test compounds were placed in a Greiner Bio-One (Monroe, N.C.) 1536-well black solid bottom assay plate. 200 millimolar (mM) Tris HCl, pH 7.4, 100 micromolar (μM) EDTA and 0.01% TWEEN-20™, final concentration, was used as the assay buffer. The LDHA reagent was 2 nanomolar (nM) Human LDHA (Meridian Life Science, Inc., Memphis, Tenn.), final concentration, in assay buffer.

For the compound `NS(=O)(=O)c1ccc(Cc2c(-c3ccc(F)c(OCC4CC4(F)F)c3)nn(-c3nc(C(=O)O)cs3)c2CC2CC2)cc1F` (configuration not stated), the IC50 (in general, the concentration that inhibits the measured activity by half) was less than 100 nM.

Consider `NS(=O)(=O)c1ccc(Cc2c(-c3ccc(F)c(C#CC4CCCC4)c3)nn(-c3nc(C(=O)O)cs3)c2CC2CC2)cc1`, for which the IC50 was less than 100 nM.

The values are drawn from ChEMBL document CHEMBL5728971, “Small molecule inhibitors of lactate dehydrogenase and methods of use thereof” (2022).
